Holding throughout (type): biochemical
The target in experiment [1] is T1, PI3Kβ (Homo sapiens, UniProt P42338).
T1 construct: made in house
Put plainly: TR-FRET enzymatic activity assay, PI3Kβ. Conditions: Table 2; TR-FRET, 2x Km ATP, 30 minutes at 25° C. (In general: In TR-FRET formats the signal depends on donor and acceptor labels being close together.)

Experiment [2] has as its target T2, PI3Kδ (Homo sapiens, UniProt O00329).
T2 construct: made in house
Nature of the experiment: TR-FRET enzymatic activity assay, PI3Kδ. As to conditions: Table 2; TR-FRET, 2x Km ATP, 30 minutes at 25° C.

Experiment [3] concerns the target T3, PI3Kγ (Homo sapiens, UniProt P48736).
T3 construct: made in house
Nature of the experiment: TR-FRET enzymatic activity assay, PI3Kγ. As to conditions: read-out: PI3Kγ IC50. In outline:
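Compounds were profiled per isoform in a biochemical kinase reaction, with activity detected by time-resolved fluorescence resonance energy transfer.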

Where [4] appears, read: Table 2, TR-FRET, 2x Km ATP, 30 minutes at 25° C.

Read-outs that look alike come from different tables or passages of the source.

By IC50 is commonly meant the midpoint of a concentration-inhibition curve.

T3 sequence (P48736 whole entry): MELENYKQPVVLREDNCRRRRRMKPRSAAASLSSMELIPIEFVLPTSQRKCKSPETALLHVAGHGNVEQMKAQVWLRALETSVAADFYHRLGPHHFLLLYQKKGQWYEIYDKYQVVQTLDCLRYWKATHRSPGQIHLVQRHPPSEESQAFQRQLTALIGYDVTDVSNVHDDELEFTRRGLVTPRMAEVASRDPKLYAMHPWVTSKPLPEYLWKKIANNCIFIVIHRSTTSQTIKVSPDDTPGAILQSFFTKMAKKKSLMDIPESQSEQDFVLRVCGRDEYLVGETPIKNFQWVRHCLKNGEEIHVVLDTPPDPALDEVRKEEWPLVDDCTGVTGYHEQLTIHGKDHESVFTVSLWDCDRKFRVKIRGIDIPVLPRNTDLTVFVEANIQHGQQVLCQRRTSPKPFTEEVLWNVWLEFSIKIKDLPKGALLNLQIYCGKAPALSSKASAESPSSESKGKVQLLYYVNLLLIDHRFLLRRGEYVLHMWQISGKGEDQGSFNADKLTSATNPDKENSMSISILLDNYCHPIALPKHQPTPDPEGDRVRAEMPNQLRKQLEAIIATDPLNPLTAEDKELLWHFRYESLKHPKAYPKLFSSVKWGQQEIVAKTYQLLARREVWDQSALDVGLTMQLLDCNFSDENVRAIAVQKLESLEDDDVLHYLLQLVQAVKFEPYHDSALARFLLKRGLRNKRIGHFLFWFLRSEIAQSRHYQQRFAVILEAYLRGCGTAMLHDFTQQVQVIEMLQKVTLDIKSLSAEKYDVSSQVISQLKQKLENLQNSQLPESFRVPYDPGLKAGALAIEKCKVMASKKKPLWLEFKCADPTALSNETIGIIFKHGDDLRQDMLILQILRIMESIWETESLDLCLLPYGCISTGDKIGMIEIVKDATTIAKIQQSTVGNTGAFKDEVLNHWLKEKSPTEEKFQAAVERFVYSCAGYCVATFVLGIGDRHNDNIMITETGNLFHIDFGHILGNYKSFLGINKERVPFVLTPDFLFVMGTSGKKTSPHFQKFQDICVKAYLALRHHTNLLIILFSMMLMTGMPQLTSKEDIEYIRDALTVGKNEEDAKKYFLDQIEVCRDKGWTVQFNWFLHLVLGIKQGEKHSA
T2 sequence (O00329 whole entry): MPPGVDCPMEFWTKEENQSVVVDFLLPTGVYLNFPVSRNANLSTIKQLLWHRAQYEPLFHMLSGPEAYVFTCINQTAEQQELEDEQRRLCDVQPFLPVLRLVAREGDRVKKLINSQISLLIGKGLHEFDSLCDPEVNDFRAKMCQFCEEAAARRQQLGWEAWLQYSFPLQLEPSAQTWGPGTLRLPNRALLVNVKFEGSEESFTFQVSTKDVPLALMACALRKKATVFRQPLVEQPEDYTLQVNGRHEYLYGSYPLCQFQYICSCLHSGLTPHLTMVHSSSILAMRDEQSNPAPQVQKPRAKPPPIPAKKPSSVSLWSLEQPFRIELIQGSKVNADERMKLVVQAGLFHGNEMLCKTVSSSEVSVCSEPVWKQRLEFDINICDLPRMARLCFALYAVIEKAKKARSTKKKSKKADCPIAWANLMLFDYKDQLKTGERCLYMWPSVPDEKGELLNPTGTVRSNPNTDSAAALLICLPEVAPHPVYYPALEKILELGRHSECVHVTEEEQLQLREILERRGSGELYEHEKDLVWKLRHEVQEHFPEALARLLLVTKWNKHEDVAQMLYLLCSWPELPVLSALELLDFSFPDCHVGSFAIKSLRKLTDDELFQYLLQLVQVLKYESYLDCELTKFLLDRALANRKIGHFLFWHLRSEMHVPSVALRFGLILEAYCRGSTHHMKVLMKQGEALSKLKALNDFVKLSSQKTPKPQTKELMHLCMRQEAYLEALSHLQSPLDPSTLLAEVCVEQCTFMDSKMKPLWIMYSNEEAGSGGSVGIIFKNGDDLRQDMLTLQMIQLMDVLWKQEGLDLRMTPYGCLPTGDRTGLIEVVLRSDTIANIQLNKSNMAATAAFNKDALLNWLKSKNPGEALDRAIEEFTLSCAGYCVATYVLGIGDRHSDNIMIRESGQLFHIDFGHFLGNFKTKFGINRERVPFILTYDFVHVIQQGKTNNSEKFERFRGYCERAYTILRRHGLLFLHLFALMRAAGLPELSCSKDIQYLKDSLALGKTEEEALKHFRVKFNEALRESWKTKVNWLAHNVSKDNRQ
T2 sequence (P27986 whole entry partner): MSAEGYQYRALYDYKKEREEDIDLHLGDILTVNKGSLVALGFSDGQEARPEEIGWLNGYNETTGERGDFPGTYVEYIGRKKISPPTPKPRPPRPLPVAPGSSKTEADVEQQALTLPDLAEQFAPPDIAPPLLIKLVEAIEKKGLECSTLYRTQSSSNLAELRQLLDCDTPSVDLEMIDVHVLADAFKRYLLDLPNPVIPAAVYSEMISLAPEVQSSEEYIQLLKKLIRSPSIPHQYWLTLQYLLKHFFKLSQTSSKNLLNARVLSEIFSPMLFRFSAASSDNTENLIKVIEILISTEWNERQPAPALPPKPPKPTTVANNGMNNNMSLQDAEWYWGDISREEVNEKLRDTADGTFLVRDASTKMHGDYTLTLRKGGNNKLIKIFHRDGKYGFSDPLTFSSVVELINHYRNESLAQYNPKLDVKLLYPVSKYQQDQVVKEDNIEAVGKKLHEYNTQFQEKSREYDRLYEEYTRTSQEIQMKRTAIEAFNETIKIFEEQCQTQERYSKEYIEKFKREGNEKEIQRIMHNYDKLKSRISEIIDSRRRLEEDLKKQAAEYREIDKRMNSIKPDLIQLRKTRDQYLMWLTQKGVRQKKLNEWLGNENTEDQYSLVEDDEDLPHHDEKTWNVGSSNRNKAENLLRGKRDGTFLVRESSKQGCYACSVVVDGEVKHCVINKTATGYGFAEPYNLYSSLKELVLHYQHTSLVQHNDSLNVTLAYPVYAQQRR
T1 sequence (P42338 whole entry): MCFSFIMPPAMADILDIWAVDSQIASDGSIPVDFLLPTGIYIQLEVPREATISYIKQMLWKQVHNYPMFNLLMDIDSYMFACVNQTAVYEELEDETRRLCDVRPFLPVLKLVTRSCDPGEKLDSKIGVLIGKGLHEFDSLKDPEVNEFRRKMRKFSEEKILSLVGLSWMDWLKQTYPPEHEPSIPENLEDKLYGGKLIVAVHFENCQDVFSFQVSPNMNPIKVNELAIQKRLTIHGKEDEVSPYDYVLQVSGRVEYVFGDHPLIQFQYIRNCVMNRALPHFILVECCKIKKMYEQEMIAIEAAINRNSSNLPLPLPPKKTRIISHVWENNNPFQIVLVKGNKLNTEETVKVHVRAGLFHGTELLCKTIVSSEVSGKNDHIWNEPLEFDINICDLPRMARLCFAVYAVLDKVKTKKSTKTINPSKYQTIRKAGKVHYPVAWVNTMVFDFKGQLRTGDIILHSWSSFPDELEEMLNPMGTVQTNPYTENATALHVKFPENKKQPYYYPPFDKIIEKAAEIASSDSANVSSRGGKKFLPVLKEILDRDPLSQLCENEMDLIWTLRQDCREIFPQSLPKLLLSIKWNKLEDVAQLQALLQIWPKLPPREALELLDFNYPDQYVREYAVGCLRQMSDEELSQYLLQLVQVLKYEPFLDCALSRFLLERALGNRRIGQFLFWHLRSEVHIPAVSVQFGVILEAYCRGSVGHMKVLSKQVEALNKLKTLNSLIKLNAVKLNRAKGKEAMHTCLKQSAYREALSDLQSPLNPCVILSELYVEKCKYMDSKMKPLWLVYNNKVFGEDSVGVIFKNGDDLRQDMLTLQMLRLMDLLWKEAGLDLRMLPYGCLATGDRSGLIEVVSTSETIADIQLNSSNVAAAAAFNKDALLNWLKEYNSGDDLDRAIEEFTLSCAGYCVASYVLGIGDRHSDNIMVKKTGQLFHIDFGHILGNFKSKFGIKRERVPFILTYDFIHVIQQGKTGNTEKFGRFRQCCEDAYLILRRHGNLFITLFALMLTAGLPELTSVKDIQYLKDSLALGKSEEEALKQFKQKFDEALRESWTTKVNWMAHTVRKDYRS
T1 sequence (P27986 whole entry partner): as the sequence (P27986 whole entry partner) above

On to `CC[C@H](Nc1nc(N)nc(N)c1C#N)c1nc2cccc(Cl)c2c(=O)n1-c1cc(CCCOC)[nH]n1` [Compound 49, (S)-2,4-diamino-6-((1-(5-chloro-3-(5-(3-methoxypropyl)-1H-pyrazol-3-yl)-4-oxo-3,4-dihydroquinazolin-2-yl)propyl)amino)pyrimidine-5-carbonitrile], for which the IC50 in experiment [1] amounted to 150 nM; in experiment [2], 9 nM; in experiment [3] (setting [4]), 3500 nM.
For `O=c1c2c(Cl)cccc2nc([C@H](CO)Nc2ncnc3scnc23)n1-c1cn[nH]c1` [Compound 50, (R)-5-chloro-2-(2-hydroxy-1-(thiazolo[5,4-d]pyrimidin-7-ylamino)ethyl)-3-(1H-pyrazol-4-yl)quinazolin-4(3H)-one], in that order: 47 nM, 7 nM and 1800 nM.
Regarding `O=c1c2c(Cl)cccc2nc([C@H](CO)Nc2ncnc3scnc23)n1-c1cc[nH]n1` [Compound 51, (R)-5-chloro-2-(2-hydroxy-1-(thiazolo[5,4-d]pyrimidin-7-ylamino)ethyl)-3-(1H-pyrazol-3-yl)quinazolin-4(3H)-one], the values for the IC50 in experiment [1], in experiment [2] and in experiment [3] were 9 nM, 2 nM and > 10000 nM, respectively.
As for `CC[C@H](Nc1ncnc2[nH]cnc12)c1nc2c(Cl)ccc(Cl)c2c(=O)n1-c1cc[nH]n1` [Compound 52, (S)-2-(1-((9H-purin-6-yl)amino)propyl)-5,8-dichloro-3-(1H-pyrazol-3-yl)quinazolin-4(3H)-one], the IC50 in experiment [1] is 70 nM; in experiment [2], 6 nM; in experiment [3], > 10000 nM.
For `CC[C@H](Nc1nc(F)nc2[nH]cnc12)c1nc2c(Cl)ccc(Cl)c2c(=O)n1-c1cc[nH]n1` [Compound 53, (S)-5,8-dichloro-2-(1-((2-fluoro-9H-purin-6-yl)amino)propyl)-3-(1H-pyrazol-3-yl)quinazolin-4(3H)-one], in that order: 76 nM, 13 nM and > 10000 nM.
Turning to `CC[C@H](Nc1ncnc2sccc12)c1nc2c(Cl)ccc(Cl)c2c(=O)n1-c1cc[nH]n1` [Compound 54, (S)-5,8-dichloro-3-(1H-pyrazol-3-yl)-2-(1-(thieno[2,3-d]pyrimidin-4-ylamino)propyl)quinazolin-4(3H)-one], the IC50 is 240 nM in experiment [1], 18 nM in experiment [2] and > 10000 nM in experiment [3].
Taken in the same sequence, the figures for `CC[C@H](Nc1nc(F)nc2[nH]cnc12)c1nc2c(Cl)ccc(Cl)c2c(=O)n1-c1cn[nH]c1` [Compound 55, (S)-5,8-dichloro-2-(1-((2-fluoro-9H-purin-6-yl)amino)propyl)-3-(1H-pyrazol-4-yl)quinazolin-4(3H)-one] were 570 nM, 65 nM and > 10000 nM.
As for `CC[C@H](Nc1ncnc2sccc12)c1nc2c(Cl)ccc(Cl)c2c(=O)n1-c1cn[nH]c1` [Compound 56, (S)-5,8-dichloro-3-(1H-pyrazol-4-yl)-2-(1-(thieno[2,3-d]pyrimidin-4-ylamino)propyl)quinazolin-4(3H)-one], the IC50 is 1300 nM in experiment [1], 88 nM in experiment [2] and > 10000 nM in experiment [3].
Take `CC[C@H](Nc1ncnc2[nH]cnc12)c1nc2c(Cl)ccc(Cl)c2c(=O)n1-c1cn[nH]c1` [Compound 57, (S)-2-(1-((9H-purin-6-yl)amino)propyl)-5,8-dichloro-3-(1H-pyrazol-4-yl)quinazolin-4(3H)-one]: the IC50 in experiment [1] is 380 nM; in experiment [2], 29 nM; in experiment [3], > 10000 nM.
On to `CC[C@H](Nc1ncnc2[nH]cc(F)c12)c1nc2c(Cl)ccc(Cl)c2c(=O)n1-c1cn[nH]c1` [Compound 58, (S)-5,8-dichloro-2-(1-((5-fluoro-7H-pyrrolo[2,3-d]pyrimidin-4-yl)amino)propyl)-3-(1H-pyrazol-4-yl)quinazolin-4(3H)-one], for which the values for the IC50 in experiment [1], in experiment [2] and in experiment [3] (setting [4]) were 320 nM, 14 nM and 5900 nM, respectively.

Source of the values: US10308639B2, “Phosphatidylinositol 3-kinase inhibitors” (Gilead Sciences, Inc., priority 2014, dated 2019).
